{
  "source": "patent US20230331707A1",
  "about": "“PROGRAMMED CELL NECROSIS INHIBITOR, PREPARATION METHOD THEREFOR, AND USE THEREOF” (Shanghai Institute of Organic Chemistry, Chinese Academy of …, priority 2020, published 2023)",
  "key": {"[1]": {"test_system": "MEFs cells expressing RIPK1 WT", "assay": "TSZ-induced programmed necrosis in MEFs cells expressing RIPK1 WT", "format": "cell-based, mouse", "conditions": "600 nM", "source_text": "The adopted biological test protocol was: the effect of compounds on programmed necrosis in MEFs cells (mouse embryonic fibroblasts) with RIPK1 S161E mutation.\nIn order to verify the inhibitory effect of the compound of the present invention on the highly activated RIPK1 kinase at the cellular level, MEFs cells stably expressing RIPK1 S161E (simulating the activation state of RIPK1 after phosphorylation) were selected, TNFα-SM164-zVAD (Caspase inhibitor for inhibiting apoptosis) (TSZ) was used in combination to induce programmed cell necrosis, and cell viability was calculated by detecting chemiluminescence values, thereby obtaining the biological activity of the compound in inhibiting programmed necrosis.\nMethods: MEFs cells replenished by RIPK1: WT-RIPK1, S161A-RIPK1 and S161E-RIPK1 were replenished in RIPK1 stable knockout cells respectively. After stable expression and being cultured to logarithmic growth phase, the cells were collected, and centrifuged at 1000 rpm for 5 min. The supernatant was discarded. Cell concentration was adjusted to 5×10^4/mL, and cells were inoculated into 384-well plates with 40 μL per well. Cell culture medium diluted SM164 (100 nM), zVAD (50 μM) and compound, each […], were added to the corresponding wells. After pretreatment at 37° C. for 1 h, 5 μL of cell culture medium diluted TNF (50 ng/mL) was added to each well in the stimulated group and 5 μL of culture medium was added to the control group. […] The unstimulated DMSO control wells (Ctrl) were taken as 100% cell viability. EC50 values of the compounds were calculated using Prism Graphpad statistical software."}, "[2]": {"assay": "Liver microsomal stability test, human", "format": "in vitro ADME", "source_text": "The adopted biological test protocol was: testing the half-life of the compound in human- or mouse-derived liver microsomes.\nLiver microsomes contain many enzymes involved in drug metabolism, especially cytochrome P-450, and therefore it is one of the major tissues involved in drug metabolism in living organisms. There are some correlations between the stability of the compound in liver microsomes and the pharmacogenetic stability thereof in vivo. Therefore, the relative stability of compounds in vivo can be roughly predicted by testing the half-life of different compounds in human- or mouse-derived liver microsomes. The specific methods were as follows:\nMethods: 0.75 μL of 0.5 mM samples (compounds to be tested and control verapamil), 9.38 μL of 20 mg/mL liver microsomes (Human and Mouse) were taken and added to 239.88 μL PBS (on ice), and divided into 30 μL/tube samples respectively. The samples were incubated at 37° C. in a constant temperature water bath for 5 min, and then all samples were taken out. At zero-time, control group was added with 90 μL of ice acetonitrile first, and then added with 15 μL of 3 mM NADPH solution sequentially, and incubated at 37° C. in a constant temperature water bath. The corresponding samples were taken out after 5 min, 10 min, 20 min, 30 min and 60 min, respectively, and quenched by adding 90 μL of ice acetonitrile. All samples were centrifuged at 10000 rpm for 10 min, and the supernatants were taken and placed in a liquid phase vial waiting for LC-MS analysis."}, "FADD−/− Jurkat cells": {"test_system": "FADD−/− Jurkat cells", "assay": "Inhibition of TNF-induced programmed necrosis of FADD deficient Jurkat cells (Cell Titer-Glo viability)", "format": "cell-based", "outline": "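FADD-deficient human Jurkat T leukemia cells in log phase were adjusted to 2.5×10^5/mL and plated at 40 μl per well in 384-well plates. Compounds were added, with SM164 (50 nM) where used, for a 1 h pretreatment at 37° C. TNFα (50 ng/mL) was then added, and cells were incubated 14 h at 37° C, 5% CO2. Viability was read as ATP luminescence with Cell Titer-Glo after 30 min at room temperature, with unstimulated DMSO wells set as 100%. EC50 values were calculated in Prism Graphpad.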"}, "L929 cells": {"test_system": "L929 cells", "assay": "Inhibition of TNF-induced programmed necrosis of L929 cells (Cell Titer-Glo viability)", "format": "cell-based, mouse", "outline": "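Mouse L929 fibroblasts were diluted to 6.25×10^4/ml, plated at 40 μl per well in 384-well plates, and incubated 12 hours at 37° C., 5% CO2. Compounds were added, with SM164 (500 nM) for the combination arm, and pretreated 1 h before TNFα (500 ng/mL). After 14 h, viability was read by Cell Titer-Glo luminescence against unstimulated DMSO controls, and EC50 values were fitted in Prism Graphpad.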"}},
  "note": "Like-named read-outs stand apart in the source and are kept apart here.",
  "data": [
    {"smiles": "Cn1ncc(C(=O)NCc2ccc(-n3cnc4c(N)ncnc43)cc2)c1Cc1ccccc1", "note": "[QY-10-40]", "values": [
      {"measurement": "inhibition of programmed necrosis", "setting": "[1]", "result": "can effectively inhibit the occurrence of programmed necrosis"},
      {"measurement": "stability in liver microsomes (in words)", "setting": "[2]; human derived liver microsomes", "result": "good stability"},
      {"measurement": "T1/2 (min) Human", "setting": "[2]; human liver microsomes, NADPH, 37° C.", "result": 40.8, "unit": "min"},
      {"measurement": "concentration that essentially completely inhibits TNFα-induced programmed necrosis", "setting": "FADD−/− Jurkat cells; FADD-deficient Jurkat cells", "result": "above 1 nM"},
      {"measurement": "EC50", "setting": "FADD−/− Jurkat cells; FADD−/− Jurkat cells, stimulated with TNFα + SM164, read-out: EC50 (μM) FADD−/− Jurkat cells (human) TNFα + SM164", "result": 0.06, "unit": "nM"},
      {"measurement": "EC50", "setting": "FADD−/− Jurkat cells; Homo sapiens, Jurkat, read-out: EC50 (μM) FADD−/− Jurkat cells (human) TNFα", "result": 0.001, "unit": "nM"},
      {"measurement": "activity of inhibition of programmed necrosis compared with GSK2982772", "setting": "FADD−/− Jurkat cells; human FADD-deficient Jurkat cells, TNFα alone or in combination with SM164", "result": "stronger activity"},
      {"measurement": "concentration that essentially completely inhibits TNFα-induced programmed necrosis", "setting": "L929 cells; L929 cells", "result": "above 1 nM"},
      {"measurement": "EC50", "setting": "L929 cells; L929 cells, stimulated with TNFα + SM164, read-out: EC50 (μM) L929 cells (mouse) TNFα + SM164", "result": 0.00145, "unit": "µM"},
      {"measurement": "EC50", "setting": "L929 cells; L929 cells, stimulated with TNFα alone, read-out: EC50 (μM) L929 cells (mouse) TNFα", "result": 0.00048, "unit": "µM"},
      {"measurement": "inhibition of programmed necrosis (in words)", "setting": "L929 cells; mouse-derived L929 cells", "result": "excellently inhibit the occurrence of programmed necrosis"}
    ]}
  ]
}
